Measurements: patent publication US20170252362A1, “METHODS & COMPOUNDS USEFUL IN HEMATOPOIETIC STEM CELL MEDICINE” (ECOLE POLYTECHNIQUE FEDERALE DE LAUSANNE (EPFL), priority 2014, published 2017)

Experiments:
[1] = tested on: HSC activity of donor bone marrow; assay: Transplantation of BM derived from agent-treated donor mice (engraftment, blood chimerism); assay type: in vivo, mouse; details: for short-term HSC activity of transplanted BM from treated donors (blood chimerism): Example 8, FIG. 9C, compared to control group
Text: Therefore, NR-treatment is not expected to exhaust the LT-HSC population, which is often the problem when increasing short-term HSCs and their progeny.

[2] = tested on: blood recovery and survival of transplanted mice; assay: Survival and blood recovery of lethally irradiated, transplanted mice treated with the agent; assay type: in vivo, mouse; details: for blood recovery of post-transplanted mice (platelets, granulocytes/neutrophils): Example 8, FIG. 9D, treated recipients versus control
Experimental: Given the dependency of differentiated hematopoietic cells to the progenitor compartments, the effect of a mitochondrial membrane potential reducing agent according to the invention, in particular NR, in improving blood recovery and survival of transplanted mice was assessed. Peripheral blood count started at day 13 after transplantation, and it was repeated every 3 or 4 days.
(§1) C57Bl/6J and C57Bl/6J Ly5.1 were purchased from Charles River Laboratories International and maintained in micro-isolator cages. Mice were provided continuously with sterile food, water and bedding. Nicotinamide riboside (NR) (custom synthesized as triflate salt by Novalix in Strasbourg) was supplied in the food at 0.4 g/Kg mouse and mice were treated for 1 and 4 weeks respectively.

LT-HSC:TMRM^low cells [3] = details: 100 LT-HSC:TMRM^low cells, two days differentiation conditions with FCCP
Experimental: (§2) HSCs were cultured under ‘expansion’ conditions in U-bottom 96-well plates for five days. Cultures were maintained in Stemline II (Sigma) supplemented with 10 μg/ml Heparin (Sigma), 100 ng/ml SCF (R&D Systems), 2 ng/ml Flt3 ligand (R&D), 20 ng/ml TPO (R&D Systems), 10 ng/ml FGF-1 (Invitrogen), 500 ng/ml IGFBP2 (R&D Systems), 100 ng/ml AngL-3 (R&D Systems). At the end of the culture period cells were stained with TMRM and analyzed or sorted by flow cytometry. To induce differentiation, HSCs were cultured in basal medium (Stemline II containing 100 ng/ml SCF and 2 ng/ml Flt3 ligand) supplemented with 20 ng/ml IL-3 (R&D Systems) and 100 ng/ml IL-6 (R&D Systems).
(§3) In a first series of experiments, quantitative clonal differentiation assays (short- and long-term colony forming unit (CFU) assays as described above) were used to test to which extent mitochondrial uncoupling could influence the colony forming behavior and efficiency of hematopoietic stem and progenitor cells (FIG. 4A-C).
(§4) For some experiments, 5 or 10 μM Carbonyl cyanide 4-(trifluoromethoxy) phenylhydrazone (FCCP) (Sigma) was added at the medium. FCCP stock solution was prepared by dissolving the powder in ethanol at 10 mM concentration.

whole bone marrow cells = details: differentiation conditions, two days with FCCP
Experimental: as §2, §3, §4

HSCs [4] = details: CFSE labeling, culture with FCCP
Experimental: Freshly sorted LT-HSCs were incubated for 20 min at 37° C. with 1:400 CFSE stock solution (Cayman chemicals; CFSE cell division assay kit). The cells were pelleted and re-suspended in 1 ml of Stemline II (Sigma) containing 10% FBS for 20 min at 37° C. Thereafter, the cells were washed twice with 1 ml of Stemline II (Sigma) and put in culture.

LT-HSC:TMRM^low cells [5] = details: five days differentiation condition (SCF, Flt3, IL-3, IL-6), 5 μM FCCP, progeny transplanted
Experimental: 100 LT-HSC:TMRM^low cells were cultured for five days under differentiation-inducing conditions in the presence or absence of 5 μM FCCP. Cell progeny were transplanted in lethally irradiated recipient mice together with 2*10^6 helper cells. Peripheral blood was collected at 4, 8 and 12 and 16 weeks to determine the level of chimerism as described above.
For transplants of HSC cultured exposed to the uncoupler FCCP, 100 LT-HSC:TMRM^low cells were cultured for five days under differentiation-inducing conditions in the presence or absence of 5 μM FCCP. Cell progeny were transplanted in lethally irradiated recipient mice together with 2*10^6 helper cells. Peripheral blood was collected at 4, 8 and 12 weeks to determine the level of chimerism.

cultured HSCs = details: flow cytometry
Experimental: NADH autofluorescence was measured by flow cytometry with UV laser (ex: 350 nm, em: 460 nm).
Specifically, culture conditions that would rapidly differentiate HSCs into highly proliferative MPPs were chosen and the effect of blocking the establishment of ΔΨm on the maintenance of stemness was investigated. For that purpose, trifluorocarbonylcyanide phenylhydrazone (FCCP) which permeabilizes the inner mitochondrial membrane and disrupts its potential was used as an uncoupling agent of the electron transport from ATP generation.

[6] = tested on: hematopoietic stem and progenitor pool sizes in the bone marrow; assay: Flow cytometry analysis of hematopoietic stem and progenitor pool sizes in bone marrow of mice fed the agent; assay type: in vivo, mouse; details: for number of hematopoietic stem cells (ST-HSC / most primitive HSC) by flow cytometry: Example 8, one week treatment, FIG. 9A
Experimental: Bone marrow (BM) cells were isolated from C57Bl/6J and C57Bl/6J Ly5.1 from crushed femora and tibia. Flow cytometry analysis of hematopoietic stem and progenitor cells was performed on freshly isolated bone marrow (BM). Cell suspensions were filtered through a 70 μm cell strainer and erythroid cells were eliminated by incubation with red blood cells lysis buffer (eBioscences). Lineage-positive cells were removed with a magnetic lineage depletion kit (Miltenyi Biotech). Cell suspensions were stained with a panel of specific antibodies for stem and progenitor cells and analyzed or FACS-sorted respectively on a BD LSRII and BD FACS Aria II.
as §1

[7] = tested on: HSC mitochondrial activity; assay: In vivo assay of HSC mitochondrial activity: TMRM flow cytometry of freshly isolated HSC from mice fed the compounds; design: species or system mouse
Text: The effect of agents on HSC mitochondrial activity has been assessed by measuring mitochondrial activity in vivo: freshly isolated HSC from mice fed with the compounds were stained by TMRM and analyzed by flow cytometry.

[8] = tested on: hematopoietic progenitor compartments; assay: Colony-forming functional assay (CFUs, Methocult) on BM derived from agent-treated mice; assay type: in vivo, mouse
human hematopoiesis = assay: Human hematopoiesis in humanized NSG mice fed NR-supplemented diet; assay type: in vivo, human CD34+ cells in NSG mice; details: supplemented diet for one week
Text: NOD scid gamma (NSG) mice which are a mouse strain NOD Cg-Prkdcscid Il2rgtm1Wjl/SzJ (005557) which correspond to a mutant mouse which combines the features of the NOD/ShiLtJ background (conferring a number of deficiencies in innate immunity), the severe combined immune deficiency mutation (SCID) and an IL2 receptor gamma chain deficiency which disables cytokine signaling, were purchased from The Jackson Laboratory and bred, treated, and maintained under pathogen-free conditions in-house. New-born NSG mice were irradiated with 1Gy and 6 hours later injected intra-hepatically (IH) with 10e6 human CD34 HSCs (purified CD34+ from mobilized blood, Cellsystems Biotechnologie GmbH, Troisdorf, DE). The level of human reconstitution (% of human CD45+ cells) was analyzed 12 weeks later by FACS staining of tail vein blood samples. […] From the following day one cohort was given low fat food supplemented with NR as compared to the group treated with NA or Acipimox (n=10-12 mice/group), as indicated above, and the other cohort was given control diet. After seven days, tail vein blood was collected in EDTA tubes and mice sacrificed. Bone marrow cells were collected as described for C57BL6 mice, and both blood and bone marrow cells stained and analyzed for a panel of human lineage specific antibodies as described. […]

[9] = tested on: HSC mitochondrial activity; assay: In vitro HSC mitochondrial activity with JC1 and TMRM dyes; assay type: cell-based, mouse
Text: The effects of NR on HSC mitochondrial activity has been assessed by measuring mitochondrial activity using JC1 (Mantel et al., 2010, Cell Cycle, 9(10), 2008-17) and TMRM dyes (Vannini et al., 2015, in preparation; Nakada et al., 2010, Nature, 468, 653-658).
The effect of agents on HSC mitochondrial activity has been assessed by measuring mitochondrial activity as described in Example 7 above.

HSCs [10] = assay: Single cell proliferation kinetics and division synchrony by time-lapse microscopy; assay type: cell-based, mouse; details: single cell level
Experimental: Furthermore, at single cell level the effect of NR on cell proliferation kinetics was determined as described previously ([…] et al., 2012, supra). […] To follow the behavior of HSCs at single cell level, cells were sorted directly into 96-well plates coated with microwell arrays. Microwells containing a single cell at the time of plating were tracked by time-lapse microscopy. Proliferation kinetics were assessed using a Zeiss Axio Observer microscope equipped with an incubator chamber, temperature and CO2 control. Images were automatically acquired every three hours over five days using the imaging analysis software of MetaMorph (Visitron, Germany). Hydrogel microwell arrays were directly casted within individual wells of a 96-well plate as described (Kobel et al., 2009, Langmuir, 25(15):8774-9; Lutolf et al., 2009, Integr Biol (Camb), 1(1):59-69). Briefly, stoichiometrically balanced aqueous solutions of multi-arm poly(ethylene glycol) (PEG), end-functionalized with thiol and vinylsulfone groups were mixed and molded against a PDMS microstamp. Upon completion of crosslinking, the stamp was removed and the hydrogel microwell array was hydrated overnight at 4° C. and then sterilized with ultraviolet light.

HSCs [11] = assay: In vivo activation of HSC by IFN-α, cell cycle (Ki67) and ΔΨm analysis; design: species or system mouse
Experimental: In order to verify this hypothesis, cell cycle phase analyses were performed using Ki67 and Hoechst staining as described below on freshly isolated HSCs that were separated into low and high ΔΨm. […] Under homeostatic conditions, quiescent state, corresponding to ca. 70% of cells, and cycling HSCs have indistinguishable ΔΨm profiles.
A similar analysis was performed on HSCs that were activated to exit dormancy directly in vivo using interferon-alpha (IFN-α) treatment of mice (Essers et al., 2009, Nature 458, 904-908) through subcutaneous injections of IFN-α carried out 48 and 24 hours prior to cell isolation.
HSC were activated to exit dormancy by interferon-alpha (IFN-α) treatment following published protocols (Essers et al., 2009, supra). Briefly, subcutaneous injections in C57B1/6J mice were carried out with 10,000 U of IFN-α (R&D systems) 48 and 24 hours prior to bone marrow extraction. Control mice were injected with an equivalent volume of the vehicle (PBS+0.1% BSA).

Cc1cnc(C(=O)O)c[n+]1[O-] [Acipimox, acipimox, reference compound] was tested, and the “short-term HSC activity of transplanted BM from treated donors (blood chimerism)” value [1] was “no significant difference” and the “blood recovery of post-transplanted mice (platelets, granulocytes/neutrophils)” value [2] was “slower platelet and granulocyte recovery”.

In the case of N#CC(C#N)=NNc1ccc(OC(F)(F)F)cc1 [FCCP, Carbonyl cyanide 4-(trifluoromethoxy)phenylhydrazone], the “colonies derived from the most primitive cells (CFU-GEMM)” value (LT-HSC:TMRM^low cells [3]) is reported as “concomitant increase”, the “frequency of colonies derived from the more committed progenitors (Mk, G, M and GM)” value (LT-HSC:TMRM^low cells [3]) is reported as “striking decrease in the frequency of colonies” and the “total number of colonies” value (whole bone marrow cells; 15'000 whole bone marrow cells) is reported as “striking decrease in the total number of colonies”. The “percentage of clonogenic multi-lineage colonies (CFU-GEMMs)” value (whole bone marrow cells; whole bone marrow cells) was “increase in the percentage of clonogenic multi-lineage colonies”, the “percentage of colonies derived from more committed progenitors (M, GM)” value (whole bone marrow cells; whole bone marrow cells) was “markedly decreased” and the “divisional history (induction of quiescence)” value (HSCs [4]) was “all cells in culture are rapidly dividing several times”. The “long-term multilineage blood reconstitution in recipient mice” value (LT-HSC:TMRM^low cells [5]) was “dramatically higher levels of long-term multilineage blood reconstitution” and the NADH levels (cultured HSCs) was “decreased NADH levels”.

For O=C(O)c1cccnc1 [NA, nicotinic acid, reference compound], the “number of hematopoietic stem cells (ST-HSC / most primitive HSC) by flow cytometry” value [6] was “do not show a significant difference”, the “ability to reduce mitochondrial membrane potential in HSCs” value ([7]; mice fed with the compounds) was “not able to significantly reduce mitochondrial membrane potential in HSCs” and the “Megakaryocytes (MkE) colonies” value ([8]; Example 8, FIG. 9B) was “reduction of Megakaryocytes (MkE) colonies”. For the same compound, the “progenitor population / total and myeloid colonies in CFUs from BM of treated mice” value ([8]; Example 8, FIG. 9B) was “do not show a significant difference in total and myeloid colonies”.

In the case of NC(=O)c1ccc[n+]([C@@H]2O[C@H](CO)[C@@H](O)[C@H]2O)c1 [NR, nicotinamide riboside], the human lymphocyte production (human hematopoiesis) is reported as “significant increase in lymphocyte production”, the human monocyte production (human hematopoiesis) is reported as “trend towards increased monocyte production” and the “mitochondrial activity of HSCs” value ([9]; HSCs exposed in vitro, JC1 and TMRM) is reported as “robust decrease in mitochondrial activity”. For the same compound, the “proportion of cells with low mitochondrial activity” value ([9]; dividing HSCs in vitro) was “raised the proportion of cells with low mitochondrial activity”, the “percentage of cells with high mitochondrial activity” value ([9]; in vitro, compared to control conditions) was “reduces the percentage of cells with high mitochondrial activity to half” and the “percentage of HSC daughters that maintain a low mitochondrial activity” value ([9]; in vitro, control about 5%) was “about 10%”. The “hematopoietic stem and progenitor compartments in BM” value ([6]; 1 week treatment through the food, flow cytometry) was “increased cellularity is observed in all hematopoietic progenitor compartments”, the “hematopoietic progenitor compartments in BM” value ([6]; 4 weeks treatment through the food, flow cytometry) was “only the short-term compartment (ST-HSC) is expanded” and the “number of hematopoietic stem cells (ST-HSC / most primitive HSC) by flow cytometry” value [6] was “expanded ST-HSC compartment”. The HSC pool ([6]; short- and long-term treatment) was “not accompanied by a reduction of the HSC pool”, the “engraftment of BM derived from treated mice” value ([1]; 1-month treated donor mice, transplantation assay) was “do not show engraftment advantage” and the “short-term HSC activity of transplanted BM from treated donors (blood chimerism)” value [1] was “higher ST-HSC activity”. For the same compound, the asynchronous division (HSCs [10]) was “significant increase in asynchronous division”, the proliferation kinetics (HSCs [10]) was “do not have a major change in their proliferation kinetics” and the “number of short-term HSCs with low mitochondrial activity” value ([7]; freshly isolated HSC from fed mice, TMRM, FIG. 12) was “able to push the number of short-term HSCs with low mitochondrial activity very significantly”. The “blood recovery of post-transplanted mice (platelets, granulocytes/neutrophils)” value [2] was “faster exit of neutropenia and thrombocytopenia”, the “survival of transplanted mice” value ([2]; limiting-dose transplanted mice, all untreated mice died within one month) was 80% and the “exit of neutropenia (neutrophils >0.5 G/l) relative to controls” value ([2]; transplanted mice, on average) was “one week before controls”. The “recovery from severe thrombocytopenia (platelet count >100 G/l) earlier relative to control mice” value ([2]; transplanted mice, on average) was 10 days, the “neutrophil and platelet recovery” value ([2]; transplanted mice, peripheral blood counts from day 13) was “faster neutrophil and platelet recovery” and the “colonies in CFUs assay from BM of treated mice” value ([8]; 1 and 4 weeks treatment, especially short-term treated mice) was “confirmed the expansion of hematopoietic progenitor compartments”. The “lineage of most striking colony increase” value ([8]; CFUs from BM of treated mice) was “most striking in the Mk lineage” and the “progenitor population / total and myeloid colonies in CFUs from BM of treated mice” value ([8]; Example 8, FIG. 9B) was “expanded progenitor population”.

IFN-α was tested, and the “ΔΨm levels of quiescent versus cycling HSCs” value (HSCs [11]; after IFN-α treatment, MitoTracker Deep Red) was “not significantly different” and the “number of cycling (Ki67+) HSCs” value (HSCs [11]; subcutaneous injections 48 and 24 hours prior to cell isolation, control ca. 30) was ~50%.
